{"source": "patent US7815905B2", "about": "“Methods of increasing insulin sensitivity or decreasing insulin secretion by administering corticotropin releasing factor receptor-2 inhibitors” (Research Development Foundation, priority 2006, dated 2010)", "key": {"[1]": {"tested_on": "C2C12 myotubes", "test": "[3H]2-deoxy-D-glucose uptake in C2C12 myotubes", "assay_type": "cell-based", "conditions": "0.1, 1 or 10 nM for 30 min prior to insulin 10 nM", "experimental": "FIG. 3a-l: Urocortin 2 effects on muscle glucose uptake are mediated by inhibition of insulin signaling. (a-f). Ucn 2 inhibits the insulin-induced Akt and ERK1/2 phosphorylation but not the insulin receptor phosphorylation. Differentiated C2C12 myotubes were pre-incubated with or without Ucn 2 peptide (0.1, 1 or 10 nM) for 1 hour prior to insulin treatment (10 nM, 5 min). Cell lystates were resolved using 4-12% gradient polyacrylamide gels. Gels were electrophorectically transferred to membranes and probed with antibodies specific for the phospho proteins pAkt (Ser 473), pERK1/2 or pIR (Tyr1146). Stimulation of Akt, ERK or insulin receptor (IR) activation was calculated by fold activation of the phosphorylated form normalized to total and compared with the untreated controls (a, d and f, graphs). […] (g-j) Ucn 2 treatment increases the phosphorylation of serine residue 307 and not the tyrosin phosphorylation of IRS-1. Myotube cells, treated with or without PKA inhibitor (H-89), were incubated with insulin and different concentrations of Ucn 2. […] Glucose uptake was measured 5 min following exposure to [^3H]2-deoxy-D-glucose. Non-specific uptake was measured by incubating muscle tissue with cytochalasin B, which binds to the glucose uptake transporter (GLUT) and inhibits glucose transport into the cell. Specific uptake was calculated by subtracting non specific from total glucose. […]"}, "[2]": {"tested_on": "Ucn 2 null mice", "test": "Insulin tolerance test (ITT) in Ucn 2 null mice", "assay_type": "in vivo, mouse", "conditions": "fasted male Ucn 2 null mice; 0.1 μg/kg IP 20 min prior to insulin 0.75 U/kg", "experimental": "(§1) FIG. 1a-f: Metabolic phenotype of Ucn 2 null mice. […] The ability of the Ucn 2 null mice and wild type littermates to handle a glucose load was assessed using a standard glucose tolerance test (see example 1). Fasted male mice were injected intraperitoneally (IP) with glucose (2 g/kg body weight) and blood glucose levels were measured before and at 15, 30, 60, 90 and 120 min following glucose injection. […] Fasted male Ucn 2 null mice were injected IP with saline or with 0.1 μg/kg body weight Ucn 2, 20 min prior to glucose injection (2 g/kg body weight) and blood glucose levels were measured before and at 15, 30, 60 and 90 min following glucose injection. […] Fasted male wild type mice were injected IP with saline or with astressin2B (30 μg/kg body weight), 20 min prior to glucose injection (2 g/kg body weight), and blood glucose levels were measured before and at 15, 30, 60 and 90 min following glucose injection. (d) The enhanced glucose tolerance in the Ucn 2 null mice is not due to increased insulin secretion. Fasted male mice were injected with glucose (3 g/kg body weight, IP) and blood samples were collected at 2, 5, 15 and 30 min following glucose injection and insulin was measured by radioimmunoassay. […] Fasted male mice were injected with insulin (0.75 U/kg body weight, IP) and blood glucose levels were measured before and at 15, 30, 60 and 90 min following insulin injection. […]"}, "[3]": {"tested_on": "insulin signaling in C2C12 myotubes", "test": "Phosphorylation studies of insulin signaling in C2C12 myotubes", "assay_type": "cell-based", "experimental": "FIG. 3a-l: Urocortin 2 effects on muscle glucose uptake are mediated by inhibition of insulin signaling. (a-f). Ucn 2 inhibits the insulin-induced Akt and ERK1/2 phosphorylation but not the insulin receptor phosphorylation. Differentiated C2C12 myotubes were pre-incubated with or without Ucn 2 peptide (0.1, 1 or 10 nM) for 1 hour prior to insulin treatment (10 nM, 5 min). Cell lystates were resolved using 4-12% gradient polyacrylamide gels. Gels were electrophorectically transferred to membranes and probed with antibodies specific for the phospho proteins pAkt (Ser 473), pERK1/2 or pIR (Tyr1146). Stimulation of Akt, ERK or insulin receptor (IR) activation was calculated by fold activation of the phosphorylated form normalized to total and compared with the untreated controls (a, d and f, graphs). […] (g-j) Ucn 2 treatment increases the phosphorylation of serine residue 307 and not the tyrosin phosphorylation of IRS-1. Myotube cells, treated with or without PKA inhibitor (H-89), were incubated with insulin and different concentrations of Ucn 2. IRS-1 immunoprecipitated proteins were electrophoresed as before and the immunoblots were probed for phosphorylated tyrosin (g), phosphorylated serine 307 IRS-1 (i) and total IRS-1 (g, i). […] (k) The effect of Ucn 2 on [^3H]2-deoxy-D-glucose uptake in differentiated C2C12 myotubes. Cells were incubated for 2 hours in low glucose, serum free medium and treated with Ucn 2 (0.1, 1 or 10 nM) or without (control) for 30 min prior to insulin administration (10 nM). Glucose uptake was measured 5 min following exposure to [^3H]2-deoxy-D-glucose. Non-specific uptake was measured by incubating muscle tissue with cytochalasin B, which binds to the glucose uptake transporter (GLUT) and inhibits glucose transport into the cell. Specific uptake was calculated by subtracting non specific from total glucose. (l) Schematic representation of the putative cellular mechanisms mediating the effect of Ucn 2 and CRFR2 on the insulin signaling and glucose uptake in skeletal muscle cells. * indicates p<0.05 vs. no treatment. # indicates p<0.05 vs. insulin treatment (b, d, f) or p<0.05 vs. insulin treatment and Ucn 2 (i).\nDifferentiated C2C12 myotubes were pre-incubated with or without Ucn 2 peptide (0.1, 1 or 10 nM) for 1 hour prior to insulin treatment (10 nM, 5 min). Cells were harvested immediately in 100 μl of sample treatment buffer [STB, 50 mM Tris (pH 6.8), 100 mM dithiothreitol, 2% (wt/vol) sodium dodecyl sulfate, 0.1% (wt/vol) bromphenol blue, and 10% (wt/vol) glycerol]. The samples were boiled for 5 min, proteins were electrophoresed on 4-12% sodium dodecyl sulfate-polyacrylamide gradient gel (Invitrogen Life Technologies), subsequently transferred onto nitrocellulose membranes, and probed with antibodies specific for phosphorylated Akt (Ser 473, Cell Signaling Technology, Inc., Beverly, Mass.), phosphorylated ERK1/2-p42, 44 (Santa Cruz Biotechnology, Inc., Santa Cruz, Calif.), phosphorylated insulin receptor (Tyr 1146, Cell Signaling Technology, Inc.), or phosphorylated IRS1 (Ser 307, Upstate Cell Signaling Solutions, Lake placid, NY). The membranes were washed with phosphate buffer saline containing 0.05% (vol/vol) Tween 20 and incubated with horseradish peroxidase-conjugated anti mouse or rabbit IgG raised in sheep (Amersham Biotech Pharmacia). Immunoreactive proteins were visualized using Super Signal West Pico Chemiluminescent substrate (Pierce, Rockford, Ill.). The relative protein levels were determined using densitometry (Image quant 1.2) by probing the membranes with antibodies directed against total proteins."}, "[4]": {"tested_on": "Ucn 2 null mice", "test": "Glucose tolerance test (GTT) in Ucn 2 null mice", "assay_type": "in vivo, mouse", "conditions": "fasted male Ucn 2 null mice; 0.1 μg/kg IP 20 min prior to glucose 2 g/kg", "experimental": "as §1"}, "[5]": {"conditions": "0.1, 1 or 10 nM for 1 hour prior to insulin 10 nM, 5 min"}, "[6]": {"conditions": "IRS-1 immunoprecipitates, insulin and Ucn 2"}}, "note": "Entries after “also recorded” stand apart in the source; their conditions may differ. Ends that are not written are not given here.", "data": [{"substance": "Ucn 2: Urocortin 2, member of the CRF family, CRFR2 agonist; synthetic peptide (IVLSLDVPIGLLQILLEQARARAAREQATTNARILARVGHC; ends and bridges not checked; UniProt Q96RP3 72-112, looked up)", "values": [{"measurement": "insulin induced glucose uptake", "setting": "[1]", "value": "reduces; also recorded: dose dependently inhibited"}, {"measurement": "blood glucose in insulin tolerance test", "setting": "[2]", "value": "restored blood glucose levels to those of wild type mice; also recorded: restores blood glucose to wild type levels"}, {"measurement": "insulin-induced ERK1/2 phosphorylation", "setting": "[3]; [5]", "value": "reduces; also recorded: inhibited; also recorded: dose dependently inhibits"}, {"measurement": "insulin-induced phosphorylation of Akt (Ser 473)", "setting": "[3]; [5]", "value": "reduces; also recorded: inhibits the insulin-induced phosphorylation of Akt in a dose dependent fashion; also recorded: dose dependently inhibits"}, {"measurement": "insulin-induced phosphorylation of the insulin receptor (Tyr1146)", "setting": "[3]; [5]", "value": "no significant differences"}, {"measurement": "phosphorylation of IRS-1 on serine residue 307", "setting": "[3]; [6]", "value": "greatly increases; also recorded: strongly increases"}, {"measurement": "tyrosine phosphorylation of IRS-1 in response to insulin", "setting": "[3]; [6]", "value": "remains unchanged"}, {"measurement": "blood glucose in glucose tolerance test", "setting": "[4]", "value": "restores blood glucose to wild type levels"}]}]}
